Results as given in patent US20080306155A1, “METHOD FOR TREATING RENAL DISEASE” (priority 2004, published 2008).
Entries after “also recorded” stand apart in the source; their conditions may differ.

Key:
[1] = Plasma levels of the 20-HETE analogs after s.c. injection (LC/MS); format: in vivo, rat; details: rats, 10 mg/kg s.c.; for peak blood levels: 10 mg/kg
Protocol: Measurement of plasma levels of the 20-HETE analogs: A chronic polyvinyl catheter was implanted into the jugular vein and exteriorized at the back of the neck of SD rats several days prior to an experiment. After a three-day recovery period, the rats (n=4 in each group) received a s.c. injection of either 5, 14-20-HEDE (10 mg/kg) or 5, 14-20-HEDGE (10 mg/kg), and blood samples were collected 1, 4, 8 and 24 hours after administration. Plasma levels of 5, 14-20-HEDE and 5, 14-20-HEDGE were measured by liquid chromatography-mass spectrometry (LC/MS) using an Applied Biosystems API 3000 LC/MS/MS (Foster City, Calif.).

[2] = tested on: renal I/R injury in SD rats; assay: Renal I/R injury model (Example 3): plasma creatinine, tubular injury, TUNEL; format: in vivo, rat; details: for area occupied by necrotic tubular epithelium or cast material (tubular injury score): compared to vehicle or HET0016-treated animals; for histological appearance of tubular injury (H&E, fluorescence microscopy): corticomedullary junction; for plasma creatinine: SD rats, 24 h after 30 min ischemia, s.c. 30 min prior: HET0016 5 mg/kg, 5,14-20-HEDE 10 mg/kg, 5,14-20-HEDGE 1 mg/kg; for effect on plasma creatinine 24 hours following renal I/R injury: HET0016 5 mg/kg s.c., 5,14-20-HEDGE 1 mg/kg s.c.
Protocol: Renal I/R Injury Model: Rats were anesthetized with ketamine (50 mg/kg, i.m.) and sodium pentobarbital (50 mg/kg, i.p) and were placed on a heated surgical table to maintain body temperature at 37° C. A midline abdominal incision was made to expose the kidneys, and the renal arteries and veins were bilaterally occluded for 30 minutes using microvascular clamps. The clamps were then removed, the abdominal incision was closed, and the rats were allowed to recover for 24 hours. Rats were then euthanized with sodium pentobarbital (100 mg/kg, i.p.), and blood was collected from the aorta for measurement of plasma creatinine concentration using the Jaffe reaction. Both kidneys were collected for histological analysis.
In addition, the method was repeated on four groups of rats. However, rats were pretreated with a s.c. injection of vehicle or one of three treatments 30 minutes prior to induction of renal ischemia. Group 1 served as the control group and received 1 ml/kg of a vehicle (11% sulfobutyl-•-cyclodextrin in 165 mM mannitol solution, […].); Group 2 received HET0016 (5 mg/kg, s.c.); Group 3 received 5, 14-20-HEDE (10 mg/kg; s.c.); and Group 4 received 5, 14-20-HEDGE (1 mg/kg; s.c.).
Analysis of the degree of tubular injury: The kidneys of rats subjected to renal I/R injury were fixed in 10% formalin and paraffin sections (3•m) were prepared and stained with hematoxylin and eosin. The sections were examined at low power using a 2× objective of an Olympus BHT-2 (Olympus; Center Valley, Pa.) epifluorescent microscope equipped with a 540-nm excitation filter and a 590-nm emission filter. For each specimen, five randomly chosen outer medullary fields were photographed at 100× magnification using a digital color camera and following appropriate thresholding. The percentage of the area containing fluorescent necrotic tubular epithelium or cast material was quantified using Image-Pro Plus image analysis software (version 6.2; Media Cybernetics, Inc.; Bethesda, Md.). TUNEL labeling was also performed to assess the degree of apoptosis following renal LIR injury using an ApopTag Plus In Situ Apoptosis Fluorescein Detection Kit (Chemicon International; Temecula, Calif.) following the manufacturer's protocol. Apoptotic nuclei were visualized at approximately 100× by fluorescence microscopy and quantified using Metamorphi Image Analysis Software (Molecular Devices Corp.; Dowington, Pa.). A total of five fields were analyzed per section, with one section analyzed per animal. Data were expressed as the percentage of TUNEL positive nuclei per total number of DAPI stained cells.

isolated glomeruli = assay: Albumin permeability (Palb) of isolated glomeruli; format: cell-based, rat; details: for increase in Palb produced by TGF-•1 after pretreatment of glomeruli: pretreated with 1 μmol/L for 15 minutes at 37° C., then TGF-•1 10 ng/ml
Protocol: Measurement of Albumin Permeability (Palb): Glomeruli were isolated using the sieving method as previously described in a medium containing 5 g/dl of bovine serum albumin (BSA). See, Sharma R, et al, Kidney Intl. 58:131-136 (2000); and Savin V, et al. J. Am. Soc. Nephrol. 3:1260-1269 (1992). In each experimental condition, Palb was determined from the change in glomerular volume (•V) after exchange of the bath with medium containing 1 g/dl albumin. Palb was calculated as 1−(•Vexperimental/•Vcontrol) where glomeruli from SD rats fed a normal-salt diet were used to provide the control value for each experiment. To verify that lack of •Vs in Dahl S rats were related to changes in Palb rather than to changes in mechanical properties of glomeruli, additional studies were performed in which the glomeruli were exposed to a 5% solution of high molecular weight dextran.
In other experiments, we examined the interaction of TGF-• and 20-HETE on Palb in glomeruli isolated from SD rats and Dahl S rats fed either a LS diet or a HS diet for 4 days. Glomeruli were preincubated with vehicle or TGF-•1 (10 ng/ml) for 15 minutes at 37° C. and changes in Palb were determined. Glomeruli were also pretreated with 5, 14-20-HEDE (WIT003) (1 μmol/L; Taisho Pharmaceutical; Tokyo, Japan) (Alonso-Galicia et al., supra; and Yu et al., supra), for 15 minutes at 37° C. and the Palb response to TGF-• 1 (10 ng/ml) was redetermined. A minimum of 5 glomeruli from each rat were studied, and the experiments were performed using •5 rats per treatment group.

[3] = tested on: renal ischemia-reperfusion injury in SD rats; assay: Renal ischemia-reperfusion injury model (Example 2); format: in vivo, rat; details: 30 min ischemia, 24 h reperfusion; for degree of renal I/R injury reflected by rise in plasma creatinine concentration: HET0016 5 mg/kg s.c., WIT003 10 mg/kg s.c., 30 min prior, vs vehicle
Protocol: Renal Ischemia-Reperfusion Injury Model: Experiments were performed in male SD rats anesthetized with pentobarbital (50 mg/kg). The kidneys were exposed via a midline incision and the renal arteries isolated. Adjustable vascular occluders were placed on both the right and left renal arteries to completely occlude blood flow to the kidneys for 30 minutes. After the period of complete renal ischemia, the clamps were removed and the kidneys were reperfused. The surgical incisions were closed with 2-0 silk suture and the animals were allowed to fully recover from anesthesia. Twenty four hours later, the rats were reanesthetized with pentobarbital, and a sample of blood collected from the aorta for measurement of plasma creatinine concentration using an autoanalyzer. The kidneys were collected, fixed in 10% formalin solution, and paraffin sections prepared and stained with H&E to evaluate the degree of tubular necrosis and injury.
Three groups of rats were studied. Group 1 rats were treated with vehicle and served as the control animals. Group 2 rats were treated with HET0016 (5 mg/kg, s.c.) 30 minutes prior to renal ischemia. Group 3 rats were given 5, 14-20-HEDE (WIT003) (10 mg/kg, s.c.) by injection 30 minutes prior to renal ischemia.

renal I/R injury in rats = assay: Renal hemodynamics (laser-Doppler flowmetry, arterial pressure) during and after renal I/R; format: in vivo, rat
Protocol: Assessment of renal hemodynamics: Additional experiments were performed to determine if the renoprotective effect of 5, 14-20-HEDGE on renal I/R injury was associated with changes in renal cortical and medullary hemodynamics. Rats were anesthetized with ketamine (50 mg/kg, i.m.) and Inactin (100 mg/kg, i.p.; Sigma; St. Louis, Mo.). Catheters were placed in the femoral artery for continuous measurement of arterial pressure and in the femoral vein for i.v. infusions. The left kidney was then exposed and placed in a kidney holder and a single-mode optical fiber was implanted 4 mm into the kidney for measurement of MBF by laser-Doppler flowmetry (LDF) as previously described. See, Zou A, et al., J. Hypertens. 13:557-566 (1995). CBF was measured by a second laser-Doppler probe held in static position by a micromanipulator 1 mm above the renal cortex. After surgery and a 30-minute stabilization period, MAP, CBF and MBF were continuously recorded using WinDaq data acquisition software (DATAQ Instruments Inc.; Akron, Ohio) during a 5-minute control period. Baseline MAP, MBF and CBF were determined and then 5, 14-20-HEDGE (1 mg/kg s.c.) or vehicle (1 ml/kg s.c.) were administered. Thirty minutes later, the blood supply to the left kidney was occluded for 45 minutes. MAP, MBF and CBF were recorded during ischemia and for 3 hours following reperfusion.

[4] = 1 mg/kg s.c., vs vehicle, listed as 5, 14-20-HEDGE

SMILES	half-life [1]	peak blood levels [1]	reduction of plasma creatinine ([2]; 10 mg/kg s.c., 24 h after renal I/R, vs vehicle)	area occupied by necrotic tubular epithelium or cast material (tubular injury score) ([2]; 24 h after renal I/R, listed as 5, 14-20-HEDE)	histological appearance of tubular injury (H&E, fluorescence microscopy) ([2]; 24 h after renal I/R)	plasma creatinine [2] [mg/dL]	Palb after TGF-•1 in glomeruli pretreated with 20-HETE analog (isolated glomeruli; glomeruli from Dahl S rats fed HS diet for 4 days, TGF-•1 10 ng/ml)	Palb, baseline after pretreatment with 20-HETE analog (isolated glomeruli; glomeruli from Dahl S rats fed HS diet for 4 days, before TGF-•1)	baseline Palb after pretreatment of glomeruli (isolated glomeruli; glomeruli pretreated with 1 μmol/L for 15 minutes at 37° C., SD rats)	increase in Palb produced by TGF-•1 after pretreatment of glomeruli (isolated glomeruli; SD rats, listed as 20-HETE analog)	increase in Palb produced by TGF-•1 after pretreatment of glomeruli (isolated glomeruli; SD rats, listed as WIT003)	histological damage to S3 segment of the proximal tubule ([3]; 10 mg/kg s.c., data not shown)	degree of renal I/R injury reflected by rise in plasma creatinine concentration [3]	CBF or MBF prior to the induction of renal ischemia (renal I/R injury in rats; 1 mg/kg s.c.)	post-ischemic medullary blood flow (MBF) (renal I/R injury in rats; 1 mg/kg s.c. 30 min before 45 min ischemia, 3 h reperfusion, vs vehicle, listed as 5, 14-20-HEDGE)	mean arterial pressure (MAP) (renal I/R injury in rats; [4])	post-ischemic cortical blood flow (CBF) (renal I/R injury in rats; [4])	number of apoptotic nuclei (TUNEL staining) ([2]; 24 h after renal I/R, 1 mg/kg s.c., vs vehicle)	area occupied by necrotic tubular epithelium or cast material (tubular injury score) ([2]; 24 h after renal I/R)	effect on plasma creatinine 24 hours following renal I/R injury ([2]; vs vehicle)
O=C(O)CCC/C=C\CCCCCCC/C=C\CCCCCO [5,14-20-HEDE, 20-hydroxyeicosa-5(Z),14(Z)-dienoic acid]	approximately four	300 ng/ml and approximately 1 μM	approximately 50%	less severe renal injury; also recorded: marked reduction	less severe renal injury with only focal tubular necrosis or exfoliation of tubular cells	1.6 ± 0.3	0.40±0.01	0.25±0.01	reduced	greatly attenuated	opposed	reduced	significantly reduced	–	–	–	–	–	–	–
O=C(O)CNC(=O)CCC/C=C\CCCCCCC/C=C\CCCCCO [5,14-20-HEDGE, N-[20-hydroxyeicosa-5(Z),14(Z)-dienoyl]glycine]	approximately four	300 ng/ml and approximately 1 μM	–	–	less severe renal injury with only focal tubular necrosis or exfoliation of tubular cells	0.5 ± 0.02	–	–	–	–	–	–	–	did not have a significant effect	completely prevented the post-ischemic fall in MBF	without altering; also recorded: no effect	without altering; also recorded: no effect	significantly less	less severe renal injury; also recorded: marked reduction	nearly completely prevent the rise
CCCCc1ccc(N=CNO)c(C)c1 [HET0016, N-hydroxy-N′-(4-butyl-2-methylphenol)-formamidine, reference compound]	–	–	–	–	Diffuse tubular cell denudation, tubular cell necrosis, intratubular debris and tubular casts were present	3.8 ± 0.3	–	–	–	–	–	–	significantly greater	–	–	–	–	–	–	significant increase
